The values below come from article PMC4309801, “Angiotensin Converting Enzyme Inhibitors (ACEI) and doxorubicin pharmacokinetics in women receiving adjuvant breast cancer treatment” (SpringerPlus, 2015).

Where two headings read alike, the source gives them in different places.

The conditions of data set [1]: cited from earlier work; for Incidence of symptomatic heart failure: ref Singal and Iliskovic [1998], Yeh et al. [2004], Muggia and Speyer [1999]; for Incidence of asymptomatic declines in ejection fraction: up to, ref Lenihan and Cardinale [2012].
For data set [2] the following is noted: female, human, in vivo.
Experimental: (§1) Doxorubicin (60 mg/m^2) was administered as an IV infusion over 5–10 minutes followed by an infusion of cyclophosphamide 600 mg/m^2 over 30–60 minutes every two weeks for a total of four cycles (cumulative doxorubicin 240 mg/m^2). All subjects received aprepitant, dexamethasone and palonsetron prior to each infusion of doxorubicin. All subjects received pegfilgrastim subcutaneously 24–72 hours after doxorubicin and cyclophosphamide.
(§2) This was a randomized, cross-over, single-blinded drug-drug interaction study. All patients received one cycle of AC chemotherapy with enalapril and another cycle of AC with placebo (without enalapril). The two study cycles were consecutive. Patients were randomized to the enalapril intervention or placebo in cycle 1 with cross-over in the subsequent cycle. They began 5 mg of enalapril daily on day −6, and then increased to 10 mg daily on day −2, prior to doxorubicin administration on day 1.
(§3) Blood samples for pharmacokinetics (doxorubicin and doxorubicinol) were obtained in each subject twice (one cycle with enalapril and one with placebo). Samples were drawn at baseline (immediately prior to start of doxorubicin) and then at 0.5, 1, 2, 4, 24 and 48 hours after the end of infusion. Five milliliters of blood was collected at each sampling time and placed in an EDTA tube for doxorubicin and doxorubicinol analysis. Each sample of whole blood was immediately inverted 10 times, placed on wet ice, centrifuged at 3400 rpm for 10 minutes at 4 degrees C, plasma separated and frozen to −80 degrees C within 15 minutes of collection. Samples remained frozen at −80 degrees C until time of analysis. Samples were batched at the time of analysis.
(§4) Doxorubicin and doxorubicinol plasma concentration-time data were analyzed using noncompartmental methods (WinNonLin Professional 6.3). Area-under-the-curve (AUC) (0-∞) was estimated by the log/linear trapezoidal method as AUC (0-t*) + C(t*)/Ke where C(t*) was the last observed concentration and Ke is the terminal first order elimination rate constant. Ke was calculated as the slope of the linear portion of the log of plasma-concentration vs time curve using linear regression analysis. Cmax was at the highest observed concentration.
(§5) The chromatographic separation was performed with a Waters UPLC BEH C18, 2.1 × 50 mm, reversed phase column with a 1.7-micron particle size (Waters, Milford, MA). The mobile phase used for gradient elution consisted of (A) 5 mM ammonium acetate in water, pH 3.5 (B) methanol. […] The column temperature was maintained at 35°C. […] The collision energy was 14 eV, 12 eV and 25 eV, respectively. […] Cartridges were conditioned with 1 mL methanol followed by 1 mL DI water (18 Mohm.cm, type 1). The cartridges were loaded with the samples and centrifuged at 83 × g for 5 minutes and then washed with 1 mL distilled ionized water, centrifuged and transferred to a vacuum manifold for 5 minutes, and eluted with 1 mL methanol. The eluent was evaporated to dryness using a nitrogen evaporator (Zymark Turbo Vap LV, Hopkinton, MA) set at 37°C, and reconstituted in 100 μL of mobile phase (A:B, 45:55). Doxorubicin and doxorubicinol were obtained from Toronto Research Chemicals (Toronto, Ontario, CAN). Daunorubicin was obtained from Sigma-Aldrich (St. Louis, MO). The assays are linear in the range of 1 – 1,000 ng/mL. […] The lower limit of quantification for both analytes is 1 ng/mL.
(§6) The confidence interval is a measure of the precision of the exposure ratio estimate.
A short description of data set [3]: Doxorubicin and doxorubicinol plasma pharmacokinetics with and without enalapril (randomized cross-over drug-drug interaction study). The following applies: for AUC(0-∞) geometric mean ratio (90% CI) / Cmax geometric mean ratio (90% CI): with versus without enalapril; for Cmax: geometric mean ± standard error, 17 women.
Experimental: as §1, §2, §3, §4, §5, §6
Another data set can be described thus: clinical. The following applies: female, human, in vivo.
On the set-up of data set [4]: method as in Cardinale et al. [2006]. The following applies: 12 months after therapy; enalapril 20 mg daily; patients with troponin elevation; placebo 48.3%, p < 0.001; ref Cardinale et al. [2006]; cited from earlier work.
Data set [5] in a line: Safety / adverse events in the enalapril-doxorubicin interaction study. The class given is in vivo, women with breast cancer. Particulars: enalapril 5 then 10 mg daily with doxorubicin and cyclophosphamide. The source says: The two study cycles were consecutive. […] There were no serious or grade 3 or 4 adverse events. The most commonly reported drug-related adverse event was dizziness with 33% experiencing grade 1 dizziness. No clinical cardiac events occurred.

Experimental for clinical: as §1, §2, §3, §4, §5, §6

A word on the AUC(0-inf): it is total exposure, with the tail of the curve extrapolated. The low end stands for low exposure, the high end for high exposure. For the compound `COc1cccc2c1C(=O)c1c(O)c3c(c(O)c1C2=O)C[C@@](O)(C(=O)CO)C[C@@H]3O[C@H]1C[C@H](N)[C@H](O)[C@H](C)O1` [Doxorubicin], the results for the “Incidence of symptomatic heart failure” value in data set [1] (cumulative doses of 400–500 mg/m^2) and in data set [1] (cumulative doses ≥ 600 mg/m^2) were 3-4% and “more than 30%”, respectively. Moreover, the “Incidence of asymptomatic declines in ejection fraction” value in data set [1] (higher doses) is on record as 30-35%; in data set [1] (moderate doses (240–400 mg/m^2)), 20-25%. Further, the “AUC0-∞” value in data set [2] is listed as 1167.73 (45.26) hr*ng/ml. For the same compound, the “90% CI for Cmax geometric mean ratio” value in data set [3] (reanalysis removing the outlier Cmax (subject with body mass index 53 kg/m^2)) is given as 0.94-1.21. In addition, in data set [3], the “AUC(0-∞) geometric mean ratio (90% CI)” value is given as 1.02(0.96-1.08). Moreover, the “Cmax geometric mean ratio (90% CI)” value in data set [3] is 1.19(0.94-1.51). Also, the area under the curve AUC(0-inf) in “clinical” (AUC0-∞) is 1190 ng·h/mL; in the data set “clinical” (iv, 60 mg/m2, AUC(0-∞)), 1640 ng·h/mL.
A word on the Cmax: it is the maximum level reached in the sampled fluid or tissue. Take `COc1cccc2c1C(=O)c1c(O)c3c(c(O)c1C2=O)C[C@@](O)([C@@H](O)CO)C[C@@H]3O[C@H]1C[C@H](N)[C@H](O)[C@H](C)O1` [Doxorubicinol, doxorubicinol]: the “AUC0-∞” value was 1040 ± 80.6 ng·h/mL in data set [3] (with enalapril 10 mg daily, doxorubicin 60 mg/m^2 IV, plasma, Table 3 geometric mean ± standard error, text mean (standard error)); 1040 (80.6) hr*ng/ml in data set [3] (with enalapril exposure, abstract, Mean (SD)); 1056.32 ± 92.03 ng·h/mL in data set [3] (without enalapril (placebo cycle), doxorubicin 60 mg/m^2 IV, plasma, Table 3 geometric mean ± standard error, text mean (standard error)); 1056.3 (92.0) ng-hr/mL in data set [3] (without enalapril (placebo cycle), doxorubicin 60 mg/m^2 IV, plasma, Table 3 geometric mean ± standard error, text mean (standard error), listed as doxorubicinol); 1056.32 (92.03) hr*ng/ml in data set [3] (without enalapril, abstract, Mean (SD)). Moreover, the highest concentration (Cmax) in data set [3] (with enalapril 10 mg daily, doxorubicin 60 mg/m^2 IV, plasma) came to 27.81 ± 3.59 ng/mL; in data set [3] (without enalapril (placebo cycle), doxorubicin 60 mg/m^2 IV, plasma), 29.66 ± 4.68 ng/mL. The “AUC(0-∞) geometric mean ratio (90% CI)” value in data set [3] was 0.96(0.88-1.05). Besides, the “Cmax geometric mean ratio (90% CI)” value in data set [3] is listed as 0.99(0.91-1.08).
For the compound `CCOC(=O)[C@H](CCc1ccccc1)N[C@@H](C)C(=O)N1CCC[C@H]1C(=O)O` [Enalapril, enalapril], in data set [4], the “Left ventricular ejection fraction” value is 62.8%. For the same compound, the “Subjects with grade 1 dizziness” value in data set [5] came to 33%.
